The experiment relates to Panel NCI-60 (60 carcinoma cell lines). Briefly: In vitro mean of concentrations that inhibits cell growth across 60 cell lines of the NCI panel after incubation for 48 hr at 37 degree C was measured using SRB assay. Type of experiment: functional. Conditions: Homo sapiens.
A word on the GI50: it is the concentration at which growth is held to half of that of the control. A low value points to greater sensitivity of the cells. Take `COc1cc2c(cc1OC)C(=O)N1C=C(c3ccco3)C[C@H]1C=N2`: the 50% growth inhibitory concentration (GI50) is less than 10 nM. For `COc1cc2c(cc1OC)C(=O)N1CCC[C@H]1C=N2` the value was 2390 nM; for `COc1cc2c(cc1OC)C(=O)N1C=CC[C@H]1C=N2`, 1280 nM. In turn, `COc1cc2c(cc1OC)C(=O)N1C=C(c3cccs3)C[C@H]1C=N2` yielded a GI50 of 20 nM. For `COc1cc2c(cc1OC)C(=O)N1C=C(C#Cc3ccccc3)C[C@H]1C=N2` the value was less than 10 nM.

For the molecule `C=CC1=CN2C(=O)c3cc(OC)c(OC)cc3N=C[C@@H]2C1`, the GI50 stood at 120 nM. The value for `COc1cc2c(cc1OC)C(=O)N1C=C(c3ccccc3)C[C@H]1C=N2` was less than 10 nM.

Source of the values: ChEMBL document CHEMBL1137887, “Application of the Stille coupling reaction to the synthesis of C2-substituted endo-exo unsaturated pyrrolo[2,1-c][1,4]benzodiazepines (PBDs)” (2004).
